Laboratory results published in US12546785B2, “IL-17F and IL-17A-specific capture agents, compositions, and methods of using and making” (Regeneron Pharmaceuticals, Inc., priority 2017, dated 2026).
Entries after “also recorded” stand apart in the source; their conditions may differ. Bridge positions count the residues as written; N and C are the ends. Square brackets hold non-standard residues; d marks the D form. Triazole bridges read from a SMILES are 1,4-linked. Peptide text beside a SMILES is read from it. * marks the point of attachment. ξ: configuration not given here. Biotinyl(3aR,4R,6aS) = O=C1N[C@@H]2[C@@H](CS[C@@H]2CCCCC(=O)*)N1; X1 = O=C(CCCCC1SC[C@H]2NC(=O)N[C@@H]12)NCCCOCCOCCOCCCN*; Lys(N3) = [N-]=[N+]=NCCCC[C@H](N)C(=O)O; dThr(3ξ) = CC(O)[C@@H](N)C(=O)O; Thr(3ξ) = CC(O)[C@H](N)C(=O)O; AEEEA = NCCOCCOCCOCC(=O)O; Pra = C#CC[C@H](N)C(=O)O

Tests used:
[1] = molecular target: T1, His-tagged IL-17F Epitope1 (C48S) (Homo sapiens, UniProt Q96PD4); experiment: Assay to determine orientation of macrocycle binding to IL-17F Epitope1 (point ELISA with His-tagged epitopes); conditions: epitope 2 μM, unscrambled
T1 construct: made in house; host or cells: chemical peptide synthesis
Experimental: (§1) Assay to determine orientation of macrocycle binding to IL-17F Epitope1. A black 96-well NeutrAvidin Coated High Binding Capacity plate (15510, Pierce) was coated with 2 μM macrocyclic peptide ligand in TBS (pH 7.6) for 2 h at room temperature. Biotinylated monoclonal anti-IL17F (TA319597, Origene) was coated at 4 μg/mL in TBS as a control. The plate was aspirated and then washed with TBS (5×) and Wash Buffer (0.05% (v/v) Tween-20 in PBS, 1×). Chemically synthesized His-tagged IL-17F epitopes were prepared at 2 μM in Wash Buffer and incubated in the designated microwells for 90 min at room temperature. Wash Buffer without epitope was added as a control. Microwells were aspirated and subsequently washed with Wash Buffer (10×). To detect the bound IL-17F epitopes, Alkaline Phosphatase (AP)-conjugated Anti-6X His tag® antibody [HIS-1] (ab49746, Abcam) was prepared at 1:10,000 dilution and added to the microwells for 1 h at room temperature. The plate was aspirated and washed with Wash Buffer (11×). AttoPhos® AP Fluorescent Substrate System (S1000, Promega) was employed to develop the microwells. Using an excitation wavelength of 430 nm, fluorescent emission at 535 nm was recorded by Beckman Coulter DTX880 photometer. Data are shown after subtraction of the no-epitope background.
(§2) For this experiment, the IL-17F Epitope1 was re-synthesized with a His6 assay handle and C48S substitution instead of a click handle. Two additional His-tagged IL-17F epitopes were synthesized to contain strategic scrambling of the sequences either N-terminal or C-terminal to C48S (scrambled residues are shown in italics): • 1) His6-PEG3-[…] (SEQ ID NO:39); • 2) His6-PEG3-[…] (scrambled C-terminal to click handle; SEQ ID NO:40); • 3) His6-PEG3-[…] (scrambled N-terminal to click handle; SEQ ID NO:41).
(§3) In anticipation of forming a biligand with LF2 (SEQ ID NO: 28), it was important to gain insight on whether LF1 (SEQ ID NO:9) preferentially binds to the N- or C-terminus of Epitope1. Therefore, two His-tagged IL-17F epitopes were generated, scrambling the sequence either N-terminal or C-terminal to the location of the azide click handle. His6 assay handle and C48S substitution instead of a click handle. The scrambled amino acids are shown in italics. MALDI-TOF MS (m/z): calculated for C116H163N37O31 (M+H) 2571.23; found 2571.57.

[2] = tested on: His-tagged IL-17F Epitope1 (C48S); experiment: as above; conditions: epitope 2 μM
Experimental: as §1, §2, §3

[3] = molecular target: T2, full-length His-tagged IL-17F protein (Homo sapiens, UniProt Q96PD4); experiment: Sandwich ELISA: IL-17F captured by ligand immobilized on NeutrAvidin plate; format: binding; conditions: for binding affinity compared, in words: sandwich ELISA
T2 construct: Full-length His-tagged IL-17F protein (ab167911, Abcam) was serially diluted in Wash Buffer; purchased Abcam ab167911
T2 sequence (Q96PD4 31-163): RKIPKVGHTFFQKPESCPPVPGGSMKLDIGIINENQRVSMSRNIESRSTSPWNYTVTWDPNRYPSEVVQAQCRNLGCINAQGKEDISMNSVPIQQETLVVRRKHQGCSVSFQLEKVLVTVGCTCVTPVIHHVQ
Experimental: Sandwich ELISA. A black 96-well NeutrAvidin Coated High Binding Capacity plate (15510, Pierce) was coated with 2 μM macrocyclic peptide ligand in TBS (25 mM Tris-HCl, 150 mM NaCl, pH 7.6) for 2 h at room temperature. Biotinylated monoclonal anti-IL17F (TA319597, Origene) was coated at 4 μg/mL in TBS as a control. The plate was aspirated and then washed with TBS (5×) and Wash Buffer (0.05% (v/v) Tween-20 in PBS, 1×). Full-length His-tagged IL-17F protein (ab167911, Abcam) was serially diluted in Wash Buffer (from 800 to 0 nM) and incubated in the designated microwells for 90 min at room temperature. Microwells were aspirated and subsequently washed with Wash Buffer (10×). To detect the bound IL-17F protein, Alkaline Phosphatase (AP)-conjugated Anti-6X His tag® antibody [HIS-1] (ab49746, Abcam) was prepared at 1:10,000 dilution and added to the microwells for 1 h at room temperature. The plate was aspirated and washed with Wash Buffer (11×). AttoPhos® AP Fluorescent Substrate System (S1000, Promega) was employed to develop the microwells. Using an excitation wavelength of 430 nm, fluorescent emission at 535 nm was recorded by Beckman Coulter DTX880 photometer. Titration curves were fit using a four-parameter regression curve fitting program (Origin 8.5) to determine EC50 values.
(§4) For these assays, a dilution series of full-length His-tagged IL-17F protein was captured using the macrocyclic peptide ligands immobilized on a NeutrAvidin-coated plate.
Sandwich ELISA. These assays were performed using the same protocol that was used to evaluate the IL-17F Epitope1 targeted ligands.
as §4

trypsin = experiment: Trypsin protease digestion, analytical HPLC; format: in vitro ADME; conditions: trypsin 1 h at 37° C., analytical HPLC at 215 nm
Experimental: Bi-LF Biotin-PEG3-Cy(RSYNKX1X2) (SEQ ID NO:102)-PEG3-Cy(RRATSX1X2) (SEQ ID NO:83) (X1=azidolysine and X2=propargylglycine) was incubated with trypsin to study its susceptibility to protease digestion. Trypsin can cleave peptides and proteins on the C-terminal side of lysine and arginine L-amino acids. For this assay, test compounds were treated with trypsin protease (1 h at 37° C.) or left untreated as a control. In an Eppendorf tube, 4 μL of trypsin solution (10 μg/mL in 1 mM HCl) and 80 pmol of biligand were added to TBS for a final volume of 20 μL. The solution was incubated for 1 h at 37° C., and then further diluted with 80 μL TBS. 50 μL of each sample was injected into a Dionex Ultimate 3000 series analytical HPLC fitted with a Phenomenex Luna-C18 column, and eluted with a gradient of 10%-62% acetonitrile in 0.1% TFA (v/v) in water over 45 min. The samples were monitored at 215 nm.

IL-17F protein [4] = molecular target: T3, IL-17F protein (Homo sapiens, UniProt Q96PD4); experiment: Fluorescence polarization titration in solution; format: binding
T3 construct: His tag
T3 sequence (Q96PD4 31-163): T2 sequence (Q96PD4 31-163)
Experimental: The bonding affinities of the macrocycles were tested in solution by titrating the recombinant human IL-17F protein against fluorescein 5-isothiocyanate (5-FITC)-tagged macrocycles by fluorescence polarization. […] The structure of LA3 (SEQ ID NO:44), the lead macrocycle developed against IL-17A Epitope3, is shown below (X=PEG3-biotin). MALDI-TOF MS (m/z): calcd. for C62H98N22O13S (M+H) 1391.74; found 1392.36.

IL-17F protein [5] = molecular target: T3, IL-17F protein; experiment: IL-17F binding in a background of human serum, surface-immobilized ligand; conditions: for IL-17F binding efficiency in human serum: up to 10% (v/v) serum
Excerpt: Binding to IL-17F in 25% (v/v) serum is also detectable.
Target binding in biologically complex samples was interrogated by contacting surface-immobilized macrocycles with IL-17F protein in a background of human serum.

C[C@@H]1NC(=O)[C@H](CCCNC(=N)N)NC(=O)[C@H](CCCNC(=N)N)NC(=O)[C@@H](N)Cc2cn(nn2)CCCC[C@@H](C(=O)NCCCOCCOCCOCCCNC(=O)CCCCC2SC[C@H]3NC(=O)N[C@@H]23)NC(=O)[C@H](CO)NC(=O)[C@H](CCC(N)=O)NC1=O (stereo partly drawn) [Cy(RRAQSX1X2), Cy(RRAQSX1X2)-PEG3-biotin] (H-[Pra]RRAQS[Lys(N3)]-X1; triazole 1-7)
ELISA signal for His-tagged IL-17F Epitope1 (C48S) [1]: positive ELISA signals | ELISA signal for epitope scrambled C-terminal to click handle [2]: positive ELISA signals | binding to epitope scrambled N-terminal to click handle [2]: Binding was destroyed

CC(O)[C@@H]1NC(=O)[C@H](C)NC(=O)[C@@H](CCCNC(=N)N)NC(=O)[C@@H](CCCNC(=N)N)NC(=O)[C@@H](NC(=O)COCCOCCOCCNC(=O)[C@@H]2CCCCn3cc(nn3)C[C@H](NC(=O)COCCOCCOCCNC(=O)CCCC[C@H]3SC[C@H]4NC(=O)N[C@H]43)C(=O)N[C@H](CCCNC(=N)N)C(=O)N[C@@H](CO)C(=O)N[C@@H](Cc3ccc(O)cc3)C(=O)N[C@@H](CC(N)=O)C(=O)N[C@H](CCCCN)C(=O)N2)Cc2cn(nn2)CCCC[C@@H](C(N)=O)NC(=O)[C@H](CO)NC1=O (stereo partly drawn) [Bi-LS, Biotin-PEG3-Cy(rSYNkX1X2)-PEG3-Cy(rrATSX1X2)] ({Biotinyl(3aR,4R,6aS)-AEEEA}-[Pra][dR]SYN[dK][Lys(N3)][AEEEA][Pra][dR][dR]A[Thr(3ξ)]S[Lys(N3)]-NH2; triazole 1-7, 9-15)
binding affinity compared, in words ([3]; IL-17F): slightly weaker binding | susceptibility to trypsin digestion (trypsin): resistant to trypsin digestion

C=C1N[C@@H](CCCCN)C(=O)N[C@H](C(N)=O)CCCCn2cc(nn2)C[C@H](NC(=O)COCCOCCOCCNC(=O)CCCC[C@@H]2SC[C@@H]3NC(=O)N[C@@H]32)C(=O)N[C@@H](CCCNC(=N)N)C(=O)N[C@@H](CO)C(=O)N[C@@H](Cc2ccc(O)cc2)C(=O)N[C@H]1CC(N)=O [Cy(RSYNKX1X2), Biotin-PEG3-Cy(RSYNKXIX2)]
Kd (IL-17F protein [4]; 5-FITC-tagged macrocycles, in solution): 28 ± 9 nM | standard Gibbs free energy change (ΔG°=RTlnKD) of binding to IL-17F (IL-17F protein [4]; 25° C.): -10.3 kcal/mol | Kd ([3]; against His-tagged IL-17F): 15 nM | binding affinity compared, in words ([3]; IL-17F): exceeds the binding affinity of the similarly assayed biotinylated monoclonal anti-IL17F | EC50 ([3]; surface-immobilized ligand, dilution series of His-tagged IL-17F): 15 ± 5 nM | IL-17F binding efficiency in human serum (IL-17F protein [5]): reduced intensity

CC(O)[C@H]1NC(=O)[C@@H](C)NC(=O)[C@@H](CCCNC(=N)N)NC(=O)[C@@H](CCCNC(=N)N)NC(=O)[C@@H](NC(=O)COCCOCCOCCNC(=O)[C@@H]2CCCCn3cc(nn3)C[C@H](NC(=O)COCCOCCOCCNC(=O)CCCC[C@H]3SC[C@H]4NC(=O)N[C@H]43)C(=O)N[C@H](CCCNC(=N)N)C(=O)N[C@H](CO)C(=O)N[C@H](Cc3ccc(O)cc3)C(=O)N[C@H](CC(N)=O)C(=O)N[C@H](CCCCN)C(=O)N2)Cc2cn(nn2)CCCC[C@@H](C(N)=O)NC(=O)[C@@H](CO)NC1=O (stereo partly drawn) [Bi-LG, Biotin-PEG3-Cy(rsynkX1X2)-PEG3-Cy(rratsX1X2)] ({Biotinyl(3aR,4R,6aS)-AEEEA}-[Pra][dR][dS][dY][dN][dK][Lys(N3)][AEEEA][Pra][dR][dR][dA][dThr(3ξ)][dS][Lys(N3)]-NH2; triazole 1-7, 9-15)
binding affinity compared, in words ([3]; IL-17F): slightly weaker binding | susceptibility to trypsin digestion (trypsin): resistance to trypsin digestion; also recorded: resistant to trypsin digestion

CC(O)[C@@H]1NC(=O)[C@H](C)NC(=O)[C@H](CCCNC(=N)N)NC(=O)[C@H](CCCNC(=N)N)NC(=O)[C@@H](NC(=O)COCCOCCOCCNC(=O)[C@@H]2CCCCn3cc(nn3)C[C@H](NC(=O)COCCOCCOCCNC(=O)CCCC[C@H]3SC[C@H]4NC(=O)N[C@H]43)C(=O)N[C@@H](CCCNC(=N)N)C(=O)N[C@@H](CO)C(=O)N[C@@H](Cc3ccc(O)cc3)C(=O)N[C@@H](CC(N)=O)C(=O)N[C@@H](CCCCN)C(=O)N2)Cc2cn(nn2)CCCC[C@@H](C(N)=O)NC(=O)[C@H](CO)NC1=O (stereo partly drawn) [Biotin-PEG3-Cy(RSYNKX1X2)-PEG3-Cy(RRATSX1X2)] ({Biotinyl(3aR,4R,6aS)-AEEEA}-[Pra]RSYNK[Lys(N3)][AEEEA][Pra]RRA[Thr(3ξ)]S[Lys(N3)]-NH2; triazole 1-7, 9-15)
bivalent interaction stronger than the other biligands ([3]; IL-17F): at least 16 times | improvement in affinity relative to the individual PCC macrocyclic ligands ([3]; IL-17F): > 100 fold | binding to IL-17F in human serum (IL-17F protein [5]; 25% (v/v) serum): detectable | IL-17F binding efficiency in human serum (IL-17F protein [5]): no reduction in binding efficiency | susceptibility to trypsin digestion (trypsin): trypsin digestion indeed occurred
